The numbers were not newly measured in patent US11529445B2, “Methods and apparatus for kidney dialysis and extracorporeal detoxification” (HIBAR Microsciences LLC, priority 2013, dated 2022), which cites them from elsewhere.

In the data set the test system is Connexin-43. The note with it: cell culture models; concentrations commonly found among ESRD patients.

With `Cc1ccc(O)cc1` [p-cresol], the “degradation of Connexin-43 within cardiac gap junctions” value was “dose-dependent degradation of Connexin-43”.
